Residues, ends and D or L forms follow the SMILES beside them.
Columns and labels:
[1] = tested on: A549 lung adenocarcinoma cells; test: In vitro cancer cytotoxicity (MTT assay); type: cell-based, human; conditions: A549, peptide 200 µM, 24 h
Description: (§1) All cell lines were obtained from the American Type Culture Collection (ATCC, Manassas, VA, USA). The A549 lung adenocarcinoma (ATCC CCL‐185TM), MDA‐MB‐231 triple‐negative breast adenocarcinoma (ATCC HTB‐26TM), and SH‐SY5Y neuroblastoma (ATCC CRL‐2266TM) cell lines were cultured in Dulbecco's Modified Eagle's Medium (DMEM)‐high glucose (Gibco, Thermo Fisher Scientific, MA, USA). HT29 colon adenocarcinoma (ATCC HTB‐38) cell lines were maintained in DMEM/Nutrient Mixture F‐12 (Gibco). K562 chronic myeloid leukemia (ATCC CRL‐3344) were grown in Roswell Park Memorial Institute Medium 1640 (Gibco). The cells were cultured in medium supplemented with 10% fetal bovine serum (Gibco) and 1× penicillin/streptomycin (Gibco) and incubated in a 5% CO2 incubator with saturated humidity.
(§2) The protocol previously described by Chiangjong et al. and Baindara et al.^[ [5], [29] ^] was modified for use in determining the cytotoxicity of peptides on the various cancer types. Adherent cells were seeded at 1 × 10^4 cells/well into a 96‐well plate 24 h prior to replacing the media containing the peptide of interest. Suspended cells were seeded at 1 × 10^4 cells/well in the media containing the peptide of interest. Five human cell lines, including lung cancer (A549), colon cancer (HT29), breast cancer (MDA‐MB‐231), neuroblastoma (SH‐SY5Y), and leukemia (K562) cells, were treated with the culture media containing the peptides at 200 µM for 24 h. Cell viability was then determined using Cell Proliferation Kit I, MTT (Roche Diagnostics GmbH, Mannheim, Germany): MTT labeling reagent (10 µL) was added to each well and incubated at 37 °C in a 5% CO2 atmosphere for 4 h. After incubation, 100 µL solubilizing solution was added to each well and incubated at 37 °C in 5% CO2 overnight. The absorbance at 570 nm (A 570) was measured for each well. The percentage of cell viability was calculated as: (1) % Cell Viability=[A570 of treated cells − A570 of media/A570 of untreated cells−A570 of media] × 100
(§3) To evaluate dose‐dependency, ≈1 × 10^4 cells/well were cultured in media containing ALA‐A2 at 0, 6.25, 12.5, 25, 50, 100, 200, and 400 µM in a 96‐well plate for 24 h. Cell viability was determined by the MTT assay, as above.

[2] = tested on: HT29 colon adenocarcinoma cells; test: In vitro cancer cytotoxicity (MTT assay); type: cell-based, human; conditions: HT29, peptide 200 µM, 24 h
Description: as §1, §2, §3

[3] = tested on: K562 leukemia cells; test: In vitro cancer cytotoxicity (MTT assay); type: cell-based, human; conditions: K562, peptide 200 µM, 24 h
Description: as §1, §2

[4] = tested on: MDA‐MB‐231 breast cancer cells; test: In vitro cancer cytotoxicity (MTT assay); type: cell-based, human; conditions: MDA‐MB‐231, peptide 200 µM, 24 h
Description: as §1, §2

[5] = tested on: SH‐SY5Y neuroblastoma cells; test: In vitro cancer cytotoxicity (MTT assay); type: cell-based, human; conditions: peptide 200 µM, 24 h
Description: as §1, §2

[6] = tested on: Human red blood cells; test: Ex vivo hemolysis assay (RBC lysis assay); type: cell-based; conditions: peptide 200 µM, 1 h; for percent hemolysis: ≈0.8% v/v human RBC suspension in 0.9% normal saline, room temperature, absorbance 415 nm, relative to 1% Triton X‐100, blood of three healthy individuals, mean ± SD
Description: The hemolysis assay was as described previously.^[ [30] ^] After informed consent, peripheral blood (3 mL) was collected from three healthy individuals into heparin tubes (BD Biosciences, NJ, USA). The specimen was centrifuged at 2000 × g for 5 min at room temperature, and the plasma was discarded. The RBCs were washed twice with PBS and then resuspended in 0.9% normal saline solution at a volume equivalent to that of the original plasma. Approximately 0.8% v/v RBC suspension was incubated with the peptides at 200 µM (100 µL final volume) in a U‐bottom 96‐well plate at room temperature for 1 h with agitation. 1% v/v Triton X‐100 was applied as a positive control. The untreated condition served as the blank control. After 1 h incubation, the supernatants were collected by centrifuging at 2000 × g for 5 min at room temperature. The absorbance of hemoglobin in the supernatant was measured at 415 nm. The hemolysis percentage was calculated as follows: (2) % Hemolysis = [sample absorbance−blank control/positive control−blank control] × 100

[7] = tested on: A549 lung cancer cells; test: Confocal microscopy: cell internalization and membrane integrity (PI); type: cell-based, human; conditions: A549, peptide 200 µM 24 h, Triton X‐100 0.5% v/v 10 min, PI staining
Description: All cells were then incubated with PI (1:2000) and Hoechst 33342 (1:5000) in the culture medium at 37 °C in 5% CO2 for 15 min. The cells were washed with PBS twice before being fixed with 4% paraformaldehyde (PFA) in PBS. The fixed cells were washed twice with PBS and mounted in 20% glycerol in PBS. […] Thereafter, the cells were stained with PI for 15 min at room temperature, washed with PBS, and then mounted with 20% glycerol in PBS. Internalization was visualized by confocal fluorescence microscopy (Nikon Instruments, Inc., Melville, NY, USA).

CC[C@H](C)[C@H](NC(=O)CNC(=O)[C@@H](NC(=O)[C@H](CC(C)C)NC(=O)[C@H](Cc1ccccc1)NC(=O)[C@H](CC(C)C)NC(=O)[C@@H]1CCCN1C(=O)[C@@H](NC(=O)[C@H](Cc1ccccc1)NC(=O)[C@H](Cc1ccccc1)NC(=O)[C@@H](N)CCCNC(=N)N)C(C)C)C(C)C)C(=O)N[C@@H](CC(C)C)C(=O)N[C@@H](Cc1ccccc1)C(=O)N1CCC[C@H]1C(=O)N[C@@H](C)C(=O)N[C@H](C(=O)N[C@@H](CC(C)C)C(=O)N[C@@H](C)C(=O)N[C@@H](CCCCN)C(=O)N[C@@H](CCC(N)=O)C(=O)N[C@@H](Cc1ccccc1)C(=O)N[C@H](C(=O)N[C@@H](CCCCN)C(=O)O)[C@@H](C)O)[C@@H](C)CC [ALA‐A1] (H-RFFVPLFLVGILFPAILAKQFTK-OH)
anticancer effect (in words) [1]: did not exhibit a substantial anticancer effect
anticancer effect (in words) [2]: did not exhibit a substantial anticancer effect
anticancer effect (in words) [3]: did not exhibit a substantial anticancer effect
anticancer effect (in words) [4]: did not exhibit a substantial anticancer effect
anticancer effect (in words) [5]: did not exhibit a substantial anticancer effect
percent hemolysis [6]: 5.6% ± 0.6%

CC[C@H](C)[C@H](NC(=O)CNC(=O)[C@@H](NC(=O)[C@H](CC(C)C)NC(=O)[C@H](Cc1ccccc1)NC(=O)[C@H](CC(C)C)NC(=O)[C@@H]1CCCN1C(=O)[C@@H](NC(=O)[C@H](Cc1ccccc1)NC(=O)[C@H](Cc1ccccc1)NC(=O)[C@@H](N)CCCNC(=N)N)C(C)C)C(C)C)C(=O)N[C@@H](CC(C)C)C(=O)N[C@@H](Cc1ccccc1)C(=O)N1CCC[C@H]1C(=O)N[C@@H](C)C(=O)N[C@H](C(=O)N[C@@H](CC(C)C)C(=O)N[C@@H](C)C(=O)N[C@@H](CCCCN)C(=O)N[C@@H](CCC(N)=O)C(=O)N[C@@H](Cc1ccccc1)C(=O)N[C@H](C(=O)N[C@@H](CCCCN)C(=O)N[C@@H](CS)C(=O)O)[C@@H](C)O)[C@@H](C)CC [ALA‐A3] (H-RFFVPLFLVGILFPAILAKQFTKC-OH)
anticancer effect (in words) [1]: did not exhibit a substantial anticancer effect
anticancer effect (in words) [2]: did not exhibit a substantial anticancer effect
anticancer effect (in words) [3]: did not exhibit a substantial anticancer effect
anticancer effect (in words) [4]: did not exhibit a substantial anticancer effect
anticancer effect (in words) [5]: did not exhibit a substantial anticancer effect
percent hemolysis [6]: 1.3% ± 1.2%

Triton X‐100 [reference compound]
hemolytic effect (in words) ([6]; human RBCs, Triton X‐100 1% v/v): completely lysed
membrane integrity / propidium iodide internalization (in words) [7]: is internalized

CC[C@H](C)[C@H](NC(=O)[C@H](CO)NC(=O)[C@@H]1CCCN1C(=O)[C@H](C)NC(=O)CNC(=O)[C@H](CC(C)C)NC(=O)[C@H](CCCCN)NC(=O)[C@H](CCCCN)NC(=O)[C@H](CCSC)NC(=O)[C@H](CCCNC(=N)N)NC(=O)[C@H](Cc1c[nH]c2ccccc12)NC(=O)[C@H](CCC(N)=O)NC(=O)[C@H](Cc1c[nH]c2ccccc12)NC(=O)[C@H](CCCNC(=N)N)NC(=O)[C@H](CCCNC(=N)N)NC(=O)[C@H](CS)NC(=O)[C@H](CCCCN)NC(=O)[C@@H](N)Cc1ccccc1)C(=O)N[C@H](C(=O)N[C@@H](CS)C(=O)N[C@H](C(=O)N[C@@H](CCCNC(=N)N)C(=O)O)C(C)C)[C@@H](C)O [BMP‐S6, reference compound]
anticancer effect (in words) [3]: exhibited cancer cytotoxicity

CC[C@H](C)[C@H](NC(=O)[C@H](CCC(N)=O)NC(=O)[C@H](Cc1ccccc1)NC(=O)[C@@H](N)CC(C)C)C(=O)N[C@@H](CO)C(=O)N[C@@H](CC(N)=O)C(=O)N[C@@H](CCCCN)C(=O)N[C@@H](CC(C)C)C(=O)N[C@@H](Cc1c[nH]c2ccccc12)C(=O)N[C@@H](CS)C(=O)N[C@@H](CCCCN)C(=O)N[C@@H](CO)C(=O)N[C@@H](CO)C(=O)N[C@@H](CCC(N)=O)C(=O)N[C@H](C(=O)N1CCC[C@H]1C(=O)N[C@@H](CCC(N)=O)C(=O)N[C@@H](CO)C(=O)N[C@@H](CCCNC(=N)N)C(=O)N[C@@H](CC(N)=O)C(=O)O)C(C)C [ALA‐A4] (H-LFQISNKLWCKSSQVPQSRN-OH)
anticancer effect (in words) [1]: did not exhibit a substantial anticancer effect
anticancer effect (in words) [2]: did not exhibit a substantial anticancer effect
anticancer effect (in words) [3]: did not exhibit a substantial anticancer effect
anticancer effect (in words) [4]: did not exhibit a substantial anticancer effect
anticancer effect (in words) [5]: did not exhibit a substantial anticancer effect
percent hemolysis [6]: 0.7% ± 0.6%
